Experimental data reported in ChEMBL document CHEMBL3227979, “11-Oxo-11H-pyrido[2,1-b]quinazoline-8-carboxylic acid, an orally active antiallergy agent” (1979).
Active and inactive are the calls of the source. The calls are words filed in the database; no cut-off is given here.

How the values were obtained:
Rattus norvegicus [1] = experiment: Antiallergic activity in rat assessed as inhibition of ovalbumin-induced passive cutaneous anaphylaxis at 0.5 mg/kg, iv dosed along with ovalbumin challenge relative to control; format: functional
Rattus norvegicus [2] = experiment: Antiallergic activity in iv dosed rat assessed as inhibition of ovalbumin-induced passive cutaneous anaphylaxis dosed along with ovalbumin challenge; format: functional; conditions: read-out: ID50 (the source's name)
Cavia porcellus = species: Cavia porcellus; experiment: Antagonist activity at histamine receptor in guinea pig ileum assessed as reduction in histamine-induced contractions up to 0.1 mM; format: tissue-based
Rattus norvegicus [3] = experiment: Antiallergic activity in po dosed rat assessed as inhibition of ovalbumin-induced passive cutaneous anaphylaxis pretreated for 10 to 15 mins followed by ovalbumin challenge; format: functional; conditions: for ED50: read-out: ID50 (the source's name)
Rattus norvegicus [4] = experiment: Antiallergic activity in rat assessed as inhibition of ovalbumin-induced passive cutaneous anaphylaxis at 5 mg/kg, iv dosed along with ovalbumin challenge relative to control; format: functional
Rattus norvegicus [5] = experiment: Antiallergic activity in po dosed rat assessed as inhibition of antigen-induced passive cutaneous anaphylaxis; format: functional
Rattus norvegicus [6] = experiment: Antiallergic activity in iv dosed rat assessed as inhibition of antigen-induced passive cutaneous anaphylaxis; format: functional

Row | SMILES | inhibition (Rattus norvegicus [1]) | ED50 (Rattus norvegicus [2]) [mg/kg] | inhibition in vivo at 0.5 mg/kg (Rattus norvegicus [1]) [%] | further results
1 | O=C(O)c1cccn2c(=O)c3ccccc3nc12 | inactive |  |  | 
2 | Cl.O=C(O)c1ccc2nc3ccccc3c(=O)n2c1 |  | 0.5 | 45 | inhibition (Cavia porcellus): inactive; ED50 (Rattus norvegicus [3]): 2.5 mg/kg
3 | O=C1c2ccccc2S(=O)(=O)c2cc(-c3nn[nH]n3)ccc21 [DOXANTRAZOLE] |  | 1.5 |  | ED50 (Rattus norvegicus [3]): 5 mg/kg
4 | O=C([O-])c1cc(=O)c2c(OCC(O)COc3cccc4oc(C(=O)[O-])cc(=O)c34)cccc2o1.[Na+].[Na+] [CROMOLYN SODIUM] |  | 1 |  | ID50 (Rattus norvegicus [3]): inactive
5 | Cc1cc(=O)n2cc(C(=O)O)ccc2n1 | inactive |  |  | 
6 | O=C(O)c1ccc2nc(O)cc(=O)n2c1 |  |  |  | inhibition in vivo at 5 mg/kg (Rattus norvegicus [4]): 26%
7 | O=C(O)c1ccn2c(=O)c3ccccc3nc2c1 |  |  | 21 | 
8 | O=C(O)c1ccc2nc3cc4ccccc4cc3c(=O)n2c1 |  | 0.1 | 100 | ED50 (Rattus norvegicus [5]): < 0.1 mg/kg; inhibition (Cavia porcellus): inactive; ED50 (Rattus norvegicus [6]): 0.015 mg/kg; ID50 (Rattus norvegicus [3]): inactive
9 | O=C(O)c1ccc2nc3c(c(=O)n2c1)CCCC3 | inactive |  |  | 
10 | O=C(O)c1cccn2c(=O)c3cc4ccccc4cc3nc12 | inactive |  |  | 
